Data published in publication PMC8781988, “Phloroglucinol as a Potential Candidate against Trypanosoma congolense Infection: Insights from In Vivo, In Vitro, Molecular Docking and Molecular Dynamic Simulation Analyses” (Molecules, 2022).

Molecular target: T1, T. congolense sialidase (EC 3.2.1.18)
T1 construct: native bloodstream-form enzyme, isolated and partially purified on a DEAE cellulose column
Assay: enzyme inhibition kinetics (fetuin substrate, thiobarbituric acid assay, double reciprocal plot) with partially purified enzyme
Format: biochemical, Trypanosoma congolense

Oc1cc(O)cc(O)c1 [phloroglucinol]
Ki: 181 nM
